{"source": "patent US20260373103A1", "about": "“COMPOSITIONS AND METHODS FOR PREVENTING CARDIOMYOPATHY” (OHIO STATE INNOVATION FOUNDATION, priority 2022, published 2026)", "key": {"TIM23": {"tested_on": "TIM23", "test": "TIM23 protein level/degradation after A/O, immunoblotting", "type": "cell-based", "conditions": "ST-539; HeLa-Parkin/USP30, A/O 18 h", "method": "HeLa cells and mouse embryonic fibroblasts (MEFs) were grown in Dulbecco's minimum essential medium (DMEM) with 10% fetal bovine serum (FBS) supplemented with penicillin-streptomycin. HeLa Parkin, PINK1 KO cells, WT and MFN2 KO cells were previously described. Cells stably expressing USP30 were generated using lentiviral vectors of pLVX-Puro-Myc-USP30. The USP30 plasmid was obtained from Addgene. The plasmid was transferred into a lentiviral vector and viral particles were prepared by transiently transfecting HEK293T using standard methods. For the drug treatment experiments, cells were incubated in medium containing a mixture of 5 μM oligomycin and 5 μM antimycin A (A/O; see figures for treatment times). In 18 h treatment, A/O were used in combination with 10 μM quinolyl-valyl-O-methylaspartyl-[−2,6-difluorophenoxy]-methyl ketone (QVD), a broad-spectrum caspase inhibitor. […]\nThe enzymatic activity of Parkin is to function as an E3 ubiquitin ligase. […] We then employed this cellular assay to monitor TOM20 turnover, and analyzed compounds known to be associated with the ubiquitination process for inhibitors of USP30. […] Initially to assess mitophagy in cells, we monitored the degradation of the inner membrane protein, the translocase of the inner membrane 23 (TIM23), by immunoblotting (FIG. 5A). […]"}, "[1]": {"tested_on": "HeLa-Parkin and HeLa-Parkin cells expressing USP30", "test": "Cell proliferation", "type": "cell-based", "conditions": "ST-539, 24 hours"}, "[2]": {"tested_on": "heart tissue of mt-Keima mice", "test": "In vivo mitophagy in heart, mt-Keima mice", "parameters": "species or system mouse", "conditions": "25 mg/kg/day i.p. for 5 days", "method": "(§1) Fluorescent samples were examined with a Zeiss LSM 780 confocal microscope (Carl Zeiss MicroImaging). As previously described^2, fluorescence of mt-Keima was imaged in two channels via two sequential excitations (458 nm, green; 561 nm, red) and using a 570- to 695-nm emission range. Confocal experiments for parkin translocation were performed using a HeLa cell line stably expressing YFP-Parkin plated on 35 mm coverglass #1.5 chamber dishes (MatTek). These cells were treated for 2 h with DMSO as vehicle control or with A/O. YFP was imaged with a 514-nm excitation and 520- to 570-emission filters. Representative confocal images were processed using Imaris software by contrast linear stretch only. Calculation of mitophagy based on mt-Keima signal was performed using Zeiss ZEN software as previously described^2. The average of four images from each tissue sample was taken, and the values were normalized to the average value seen in the controls, assigned the value of one.\n(§2) The mt-Keima mouse. […] The mice were lightly anesthetized with isoflurane and the ejection fraction, fractional shortening, and ventricular chamber dimensions were determined using 2-D-guided M mode images. Ejection fraction, fractional shortening, ventricular chamber dimensions, and left ventricular mass were calculated automatically using the VevoLAB program. […]"}, "[3]": {"tested_on": "liver tissue of mt-Keima mice", "test": "In vivo mitophagy in liver, mt-Keima mice", "parameters": "species or system mouse", "conditions": "25 mg/kg/day i.p. for 5 days", "method": "as §1, §2"}, "Jurkat T cells": {"tested_on": "Jurkat T cells", "test": "Doxorubicin-induced apoptosis / cell viability, Resazurin assay", "type": "cell-based", "conditions": "48 hours, ST-539 and doxorubicin"}, "HeLa cells": {"tested_on": "HeLa cells", "test": "Mitophagy inducer screen by TOM20 turnover", "type": "cell-based", "conditions": "cellular TOM20 turnover assay", "method": "The enzymatic activity of Parkin is to function as an E3 ubiquitin ligase. […] To investigate TOM20 ubiquitination during mitophagy, we treated HeLa cells stably expressing YFP-Parkin (Hela-Parkin) for up to 18 h with both the mitochondrial complex III inhibitor antimycin A and the ATP synthase inhibitor oligomycin (antimycin A/oligomycin/[A/O]; FIG. 1A). […] A/O treatment also results in a decline in the abundance of the OMM protein TOM40 and the inner mitochondrial protein TIM23 (FIG. 1A). […] In this context, increased expression of USP30 blocked the accumulation of ubiquitinated TOM20 and prevented the destruction of this outer mitochondrial protein, as well as TOM40 and TIM23, after A/O treatment (FIG. 1A). We then employed this cellular assay to monitor TOM20 turnover, and analyzed compounds known to be associated with the ubiquitination process for inhibitors of USP30. […] We defined the effects of this chemical using biochemical assays. […] Initially to assess mitophagy in cells, we monitored the degradation of the inner membrane protein, the translocase of the inner membrane 23 (TIM23), by immunoblotting (FIG. 5A). […] USP30's overexpression prevented a reduction in TIM23 and TOM40 levels."}, "USP30": {"tested_on": "USP30", "conditions": "in vitro; compound and similar structures; cited from earlier work"}}, "note": "“Also recorded” adds a separate entry of the source."}
{"smiles": "CC(C)(C)NS(=O)(=O)c1cccc2c(NC(=O)C(Cc3ccccc3)NC(=O)c3ccccc3)cccc12", "note": "(stereo not shown) [ST-539]", "values": [{"measurement": "TIM23 degradation", "setting": "TIM23", "result": "restored TIM23 and TOM40 degradation"}, {"measurement": "cell proliferation", "setting": "[1]", "result": "maintained"}, {"measurement": "cardiac mitophagy (red mt-Keima signal in heart tissue)", "setting": "[2]", "result": "marked induction of the red signal in the heart tissue; also recorded: efficiently induces cardiac mitophagy"}, {"measurement": "hepatic mitophagy", "setting": "[3]", "result": "remains unchanged; also recorded: inability of ST-539 to induce hepatic mitophagy"}, {"measurement": "doxorubicin-induced apoptosis in leukemia (percent cell viability)", "setting": "Jurkat T cells", "result": "potentiates doxorubicin-induced apoptosis in leukemia"}, {"measurement": "potency as mitophagy inducer in screen", "setting": "HeLa cells", "result": "most potent mitophagy inducer"}, {"measurement": "USP30 enzyme function inhibition", "setting": "USP30", "result": "selectively inhibit USP30 enzyme function in vitro"}]}
